Paper PMC10256776, “Cryo-EM structures of ClC-2 chloride channel reveal the blocking mechanism of its specific inhibitor AK-42” (Nature Communications, 2023)
Changes are numbered by the printed parent chain.

What was measured:
Assay in all cases: whole-cell patch clamp, […] AK-42
Type in all cases: cell-based
ClC-2 [1] = biological target: T1, ClC-2 (Homo sapiens, UniProt P51788, F459A)
T1 construct: gene CLCN2; human ClC-2 mutant expressed in CHO-K1 cells
T1 sequence (P51788 2-898 F459A): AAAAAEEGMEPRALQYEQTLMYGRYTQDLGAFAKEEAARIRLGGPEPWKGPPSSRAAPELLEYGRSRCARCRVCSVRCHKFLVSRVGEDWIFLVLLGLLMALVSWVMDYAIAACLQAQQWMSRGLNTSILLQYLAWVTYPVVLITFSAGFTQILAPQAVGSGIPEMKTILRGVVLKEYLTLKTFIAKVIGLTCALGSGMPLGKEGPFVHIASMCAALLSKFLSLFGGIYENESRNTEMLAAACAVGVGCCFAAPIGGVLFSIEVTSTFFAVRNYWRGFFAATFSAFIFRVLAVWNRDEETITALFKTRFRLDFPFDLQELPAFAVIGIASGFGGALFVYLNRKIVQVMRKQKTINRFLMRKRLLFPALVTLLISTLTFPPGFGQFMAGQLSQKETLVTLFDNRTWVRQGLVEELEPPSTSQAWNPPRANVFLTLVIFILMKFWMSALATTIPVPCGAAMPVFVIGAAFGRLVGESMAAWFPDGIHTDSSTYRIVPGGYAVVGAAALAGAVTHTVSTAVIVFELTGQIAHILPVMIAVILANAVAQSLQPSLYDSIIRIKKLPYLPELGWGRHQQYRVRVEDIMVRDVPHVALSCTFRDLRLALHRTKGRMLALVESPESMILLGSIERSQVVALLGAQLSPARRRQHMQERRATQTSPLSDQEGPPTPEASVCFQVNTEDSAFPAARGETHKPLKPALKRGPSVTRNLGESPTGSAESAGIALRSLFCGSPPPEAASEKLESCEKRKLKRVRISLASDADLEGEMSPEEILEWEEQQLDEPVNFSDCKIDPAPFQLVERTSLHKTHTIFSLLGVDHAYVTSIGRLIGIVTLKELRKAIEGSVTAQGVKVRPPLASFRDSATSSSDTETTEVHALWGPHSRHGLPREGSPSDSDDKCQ

ClC-2 [2] = biological target: T2, ClC-2 (Homo sapiens, UniProt P51788, K394R)
T2 construct: gene CLCN2; human ClC-2 mutant expressed in CHO-K1 cells
T2 sequence (P51788 2-898 K394R): T1 sequence (P51788 2-898 F459A) with K393R, A458F

ClC-2 [3] = biological target: T3, ClC-2 (Homo sapiens, UniProt P51788, K394A)
T3 construct: gene CLCN2; human ClC-2 mutant expressed in CHO-K1 cells
T3 sequence (P51788 2-898 K394A): T1 sequence (P51788 2-898 F459A) with K393A, A458F

O=C(O)c1cccnc1Nc1c(Cl)ccc(OCc2ccccc2)c1Cl [AK-42, 2-((3-(benzyloxy)−2,6-dichlorophenyl)amino)nicotinic acid]
whole-cell patch clamp, 30 nM AK-42 (ClC-2 [1]): the mutation F459A in the hydrophobic pocket shows a higher percent inhibition value than wild-type ClC-2
whole-cell patch clamp, 30 nM AK-42 (ClC-2 [2]): K394R and K394A showed a slightly lower but not significant percent inhibition of AK-42 than wild-type ClC-2
whole-cell patch clamp, 30 nM AK-42 (ClC-2 [3]): K394R and K394A showed a slightly lower but not significant percent inhibition of AK-42 than wild-type ClC-2
